Patent publication US20160220557A1, “USE OF ACETYL-COA CARBOXYLASE INHIBITORS FOR TREATING ACNE VULGARIS” (PFIZER INC., priority 2013, published 2016)
pIC50: −log10 of the molar value.

Legend:
[1] = molecular target: T1, recombinant human ACC2 (rhACC2) (Homo sapiens, UniProt O00763, V2141I); assay: Transcreener ADP detection FP assay, recombinant human ACC2 inhibition; assay type: biochemical; settings: recombinant human ACC2, 50 μM ATP; read-out: Transcreener Assay hACC2 IC50
T1 construct: made in house; host or cells: CHO cells, tetracycline-induced (pcDNA5 FRT TO-TOPO)
T1 sequence (O00763 whole entry V2141I): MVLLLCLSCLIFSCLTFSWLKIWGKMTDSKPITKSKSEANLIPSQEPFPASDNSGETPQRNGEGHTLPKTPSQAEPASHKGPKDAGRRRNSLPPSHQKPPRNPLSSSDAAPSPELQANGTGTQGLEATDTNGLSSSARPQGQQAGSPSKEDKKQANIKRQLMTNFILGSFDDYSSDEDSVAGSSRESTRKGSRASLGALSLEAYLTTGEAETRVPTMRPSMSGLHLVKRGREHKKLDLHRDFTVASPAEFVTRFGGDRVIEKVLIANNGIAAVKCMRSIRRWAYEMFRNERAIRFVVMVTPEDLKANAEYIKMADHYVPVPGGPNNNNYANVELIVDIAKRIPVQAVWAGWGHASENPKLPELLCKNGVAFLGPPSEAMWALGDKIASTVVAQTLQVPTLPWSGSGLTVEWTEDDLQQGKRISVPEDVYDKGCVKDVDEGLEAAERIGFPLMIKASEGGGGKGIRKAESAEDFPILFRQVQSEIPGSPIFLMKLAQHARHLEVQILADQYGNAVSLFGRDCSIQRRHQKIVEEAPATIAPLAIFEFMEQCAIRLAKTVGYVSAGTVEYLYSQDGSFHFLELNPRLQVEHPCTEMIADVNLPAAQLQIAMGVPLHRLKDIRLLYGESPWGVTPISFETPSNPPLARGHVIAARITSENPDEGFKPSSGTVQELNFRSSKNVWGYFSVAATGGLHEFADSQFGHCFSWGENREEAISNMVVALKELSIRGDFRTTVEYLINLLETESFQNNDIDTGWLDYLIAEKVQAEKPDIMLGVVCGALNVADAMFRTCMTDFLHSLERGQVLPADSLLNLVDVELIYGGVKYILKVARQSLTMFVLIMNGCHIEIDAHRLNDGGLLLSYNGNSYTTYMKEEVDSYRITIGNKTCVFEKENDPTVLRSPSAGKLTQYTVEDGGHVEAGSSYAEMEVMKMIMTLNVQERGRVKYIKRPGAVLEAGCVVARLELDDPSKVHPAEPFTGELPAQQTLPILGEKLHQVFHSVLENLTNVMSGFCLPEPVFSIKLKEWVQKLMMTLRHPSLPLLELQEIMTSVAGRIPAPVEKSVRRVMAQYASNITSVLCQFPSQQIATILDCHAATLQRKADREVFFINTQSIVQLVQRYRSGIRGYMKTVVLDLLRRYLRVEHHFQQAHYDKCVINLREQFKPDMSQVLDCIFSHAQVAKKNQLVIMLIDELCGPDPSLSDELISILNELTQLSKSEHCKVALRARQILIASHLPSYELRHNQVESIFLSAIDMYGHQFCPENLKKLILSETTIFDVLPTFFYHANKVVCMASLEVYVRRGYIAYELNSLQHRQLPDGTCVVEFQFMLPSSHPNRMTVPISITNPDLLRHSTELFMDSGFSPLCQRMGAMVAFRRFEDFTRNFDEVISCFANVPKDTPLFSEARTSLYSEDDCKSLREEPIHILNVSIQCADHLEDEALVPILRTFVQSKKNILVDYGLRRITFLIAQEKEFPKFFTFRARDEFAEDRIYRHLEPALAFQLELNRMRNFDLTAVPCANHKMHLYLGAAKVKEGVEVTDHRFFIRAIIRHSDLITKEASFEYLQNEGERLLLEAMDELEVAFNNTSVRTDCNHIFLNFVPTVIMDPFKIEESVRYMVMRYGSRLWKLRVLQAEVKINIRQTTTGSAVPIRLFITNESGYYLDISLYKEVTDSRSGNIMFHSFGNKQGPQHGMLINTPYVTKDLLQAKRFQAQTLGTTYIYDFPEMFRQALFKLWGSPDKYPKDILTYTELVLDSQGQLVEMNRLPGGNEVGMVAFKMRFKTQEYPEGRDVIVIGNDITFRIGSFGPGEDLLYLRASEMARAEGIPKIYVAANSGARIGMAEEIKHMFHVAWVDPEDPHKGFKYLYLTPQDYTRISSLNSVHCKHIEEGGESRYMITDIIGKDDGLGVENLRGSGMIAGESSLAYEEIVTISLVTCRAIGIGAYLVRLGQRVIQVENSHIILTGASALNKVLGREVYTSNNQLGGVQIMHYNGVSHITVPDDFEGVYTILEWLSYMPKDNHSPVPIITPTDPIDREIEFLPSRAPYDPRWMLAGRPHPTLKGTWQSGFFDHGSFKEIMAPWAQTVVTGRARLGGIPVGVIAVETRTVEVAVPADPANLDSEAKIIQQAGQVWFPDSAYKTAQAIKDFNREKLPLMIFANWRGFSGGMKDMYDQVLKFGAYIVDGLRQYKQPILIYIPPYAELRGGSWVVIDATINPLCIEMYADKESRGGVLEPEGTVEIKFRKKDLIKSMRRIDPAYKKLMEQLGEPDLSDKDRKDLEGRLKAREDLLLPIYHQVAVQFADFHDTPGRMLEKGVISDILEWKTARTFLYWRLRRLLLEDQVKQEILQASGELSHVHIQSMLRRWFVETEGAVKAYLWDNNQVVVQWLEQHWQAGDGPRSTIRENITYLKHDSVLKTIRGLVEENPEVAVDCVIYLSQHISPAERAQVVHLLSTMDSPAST

CYP2C9 = molecular target: T2, CYP2C9 (Homo sapiens, UniProt P11712); assay: P450 inhibition in liver microsomes with probe substrates; assay type: in vitro ADME
T2 construct: from tissue; host or cells: liver microsomes
T2 sequence (P11712 whole entry): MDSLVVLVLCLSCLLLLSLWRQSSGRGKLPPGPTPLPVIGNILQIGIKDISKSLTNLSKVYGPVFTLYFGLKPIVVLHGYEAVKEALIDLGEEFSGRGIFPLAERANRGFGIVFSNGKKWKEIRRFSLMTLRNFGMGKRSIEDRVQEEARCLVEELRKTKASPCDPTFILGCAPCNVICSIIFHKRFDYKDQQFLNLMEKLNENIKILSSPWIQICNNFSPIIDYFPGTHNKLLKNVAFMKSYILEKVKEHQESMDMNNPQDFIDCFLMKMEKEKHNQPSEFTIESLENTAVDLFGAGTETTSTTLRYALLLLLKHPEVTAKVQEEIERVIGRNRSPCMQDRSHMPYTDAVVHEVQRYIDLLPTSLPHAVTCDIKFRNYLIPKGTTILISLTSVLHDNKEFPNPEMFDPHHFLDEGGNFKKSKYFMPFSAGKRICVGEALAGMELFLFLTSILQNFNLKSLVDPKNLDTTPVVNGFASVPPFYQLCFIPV

CYP2C19 = molecular target: T3, CYP2C19 (Homo sapiens, UniProt P33261); assay: as above; assay type: in vitro ADME
T3 construct: from tissue; host or cells: liver microsomes
T3 sequence (P33261 whole entry): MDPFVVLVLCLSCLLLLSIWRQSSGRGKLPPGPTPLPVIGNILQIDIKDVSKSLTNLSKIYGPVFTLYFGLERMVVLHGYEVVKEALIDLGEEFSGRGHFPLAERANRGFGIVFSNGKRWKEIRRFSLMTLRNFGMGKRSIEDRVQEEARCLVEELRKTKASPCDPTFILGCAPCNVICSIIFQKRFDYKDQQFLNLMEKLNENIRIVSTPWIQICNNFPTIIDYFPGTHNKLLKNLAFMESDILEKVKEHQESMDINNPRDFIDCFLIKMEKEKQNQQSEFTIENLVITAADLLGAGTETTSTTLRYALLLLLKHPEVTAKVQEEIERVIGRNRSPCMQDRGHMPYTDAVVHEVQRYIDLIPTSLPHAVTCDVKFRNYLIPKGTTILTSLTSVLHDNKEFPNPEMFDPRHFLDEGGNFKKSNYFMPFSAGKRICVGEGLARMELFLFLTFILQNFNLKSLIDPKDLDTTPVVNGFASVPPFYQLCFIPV

CYP2D6 = molecular target: T4, CYP2D6 (Homo sapiens, UniProt P10635); assay: as above; assay type: in vitro ADME
T4 construct: from tissue; host or cells: liver microsomes
T4 sequence (P10635 whole entry): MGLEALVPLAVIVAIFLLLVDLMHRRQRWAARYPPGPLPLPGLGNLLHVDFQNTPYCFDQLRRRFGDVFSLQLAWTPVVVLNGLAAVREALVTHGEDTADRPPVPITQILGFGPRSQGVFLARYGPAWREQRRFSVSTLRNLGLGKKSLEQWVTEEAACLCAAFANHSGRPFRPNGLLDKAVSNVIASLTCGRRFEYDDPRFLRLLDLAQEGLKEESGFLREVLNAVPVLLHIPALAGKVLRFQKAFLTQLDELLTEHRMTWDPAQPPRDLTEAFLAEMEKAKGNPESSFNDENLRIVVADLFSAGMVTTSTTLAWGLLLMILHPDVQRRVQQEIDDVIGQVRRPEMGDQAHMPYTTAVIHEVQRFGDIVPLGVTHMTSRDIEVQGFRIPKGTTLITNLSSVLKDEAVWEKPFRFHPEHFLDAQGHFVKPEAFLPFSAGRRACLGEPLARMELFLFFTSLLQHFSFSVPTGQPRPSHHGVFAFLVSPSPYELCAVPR

[2] = test system: de novo lipogenesis (DNL); assay: Suppression of DNL in healthy human volunteers; assay type: in vivo; settings: dose-dependent
[3] = Human studies: safety, tolerability and pharmacokinetics after oral dosing; settings: for median Tmax: oral
[4] = test system: de novo lipogenesis in ear skin and liver; assay: Effect of oral and topical ACCi on DNL (14C-acetate incorporation) in Syrian hamsters; assay type: in vivo, Syrian hamster; settings: topical 100 mg/ml single dose, vs. vehicle
Method: Male Syrian gold Hamster at ˜10 weeks were maintained adlibitum on standard hamster chow and water. […] Example 3 for topical delivery was prepared as a solution in a vehicle consisting of 70:30 (Ethanol:propylene glycol) at a concentration of 100 mg/ml. Topical administration of a single dose (5 ul/ear) was applied to hamster ears with a pipette (2-10 ul) tip adhering to 2 minute intervals following the dosing order. The dosing timing allowed for the formulation to spread evenly over an approximate 1 sq cm area and absorb/dry prior to returning the animal to the cage. 1 hour post ACCi dose each animal received an IP injection of ^14C-labeled acetate (ARC0158B diluted in saline) following the 2 minute interval timing format. Each animal received an individually calculated amount of ^14C-acetate based on body weight (0.1 μCi/g in a dosing volume of 2 μl/g). One hour after the ^14C-Acetate injection animals were sacrificed by CO2 asphyxiation.
Liver and ear skin were collected for de novo lipogenesis determinations (^14C incorporation to lipid). Briefly, 2 liver punches totaling ˜400 mg of liver were collected from the bifurcated median lobe of each animal (using a 8 mm diameter Sklar Tru-punch—Sklar Instruments), rinsed with saline and blotted dry. The tissues were placed into pre-weighed in glass tubes (Pyrex 9826-16×125 mm with PTFE lined caps) containing NaOH (1.5 mL of 2.5 M).
Ear skin samples were prepared for analysis in the following manner. One 8 mm distal biopsy punch (using an 8 mm diameter Sklar Tru-punch—Sklar Instruments) (2 per animal) was taken just above the anatomical “V” in the aural cartilage to standardize sample collection area. The punch was then split into 2 layers (anterior and posterior). The anterior (front) surface is retained for analysis. The anterior skin was placed into pre-weighed in glass tubes (Pyrex 9826-16×125 mm with PTFE lined caps) containing NaOH (1.5 mL of 2.5 M).
Upon completion of the study, the liver and ear skin samples in NaOH were weighed and this weight was used to calculate the mass of the tissue collected. The capped tubes were heated in an dry oven (˜60° C.) until the tissue was fully degraded (˜4-6 hr, gentle vortexing 2-3 times during heating). Following degradation and cooling absolute ethanol (2.5 mL) was added to each sample. The tubes were recapped and vigorously mixed (vortexed) for 60 seconds and allowed to settle overnight at RT. Petroleum ether (4.8 mL) was added to each tube, recapped and the samples were vigorous mixed (60 sec). […] Aquasol-2 scintillation fluid (10 mL) (or other compatible scintillation fluid) was added to each vial and after vortexing the samples were counted in an appropriate scintillation counter (e g. Wallac Rack-Beta 1409 LSC). […]

Row | Compound | pIC50 [1] | pIC50 (CYP2C9) | pIC50 (CYP2C19) | pIC50 (CYP2D6) | suppression of DNL in healthy human volunteers [2] | median Tmax ([3]; fasted state) [h] | median Tmax ([3]; fed state) [h] | maximum tolerated dose ([3]; single doses up to 800 mg, repeated doses up to 400 mg/day) | incorporation of de novo synthesized fatty acids in liver [4] | incorporation of de novo synthesized fatty acids in skin [4]
1 | Cc1nc2ccc(C(=O)N3CCC4(CC3)CC(=O)c3c(cnn3C(C)C)C4)cc2[nH]1 [Example 1, 1-isopropyl-1′-(2-methyl-1H-benzo[d]imidazole-5-carbonyl)-4,6-dihydrospiro[indazole-5,4′-piperidin]-7(1H)-one] | 7.35 | < 4.52 | < 4.52 | < 4.52 | up to 80% | 1 to 2 | 3 to 4 | not established | – | –
2 | CC(C)n1ncc2c1C(=O)CC1(CCN(C(=O)c3ccc4ccc(N)nc4c3)CC1)C2 [Example 3, 1′-(2-aminoquinoline-7-carbonyl)-1-isopropyl-4,6-dihydrospiro[indazole-5,4′-piperidin]-7(1H)-one] | – | – | – | – | – | – | – | – | failed to inhibit | failed to inhibit
